From patent US20260102451A1, “RUMINANT METHANE PRODUCTION INHIBITOR” (SDS BIOTECH K.K., priority 2022, published 2026)

What was measured:
Type in all cases: cell-based, Holstein milking cows
[1] = system: rumen fluid culture; assay: Methane production measurement system using rumen culture (Example 1); details: for methane amount (mean ± SD): 39° C., 17 hours
Experimental: Cashew nut shell liquid (CNSL) cold-pressed and extracted from cashew nut shells was obtained. For culture inoculum, rumen fluids (filtrates through quadruple gauzes) collected orally from Holstein milking cows 90 days or longer after calving were used. 4 mL of the rumen fluid and 6 mL of artificial saliva (McDougal's artificial saliva) were added, and the mixture was used for culturing. […] Similarly, DL-malic acid and fumaric acid were dissolved in ethanol and added such that they had desired concentrations in the solution. To equalize the effect of ethanol, only ethanol was added to a no-addition (control) area. Thereafter, the resulting products were left for several hours to vaporize ethanol, to which 50 mg of corn starch, 75 mg of concentrate feed powder, and 75 mg of timothy hay powder were added as culture substrates. […] To these test tubes, a total of 10 ml of diluted rumen fluid and artificial saliva in the above mixture ratio was added, and the tubes were incubated anaerobically in an incubator (39° C., 17 hours) with butyl rubber caps and plastic screw caps provided while nitrogen gas was blown into the head space. Each culturing was performed in triplicate. The concentrations of methane and acetic acid in volatile fatty acids were both analyzed by FID gas chromatography.

[2] = system: rumen fluid culture; assay: Methane production measurement system using rumen culture (Example 3); details: for methane amount (mean ± SD): 39° C., 17 hours; for methane amount % reduction vs cont: ^ = increase
Experimental: Cashew nut shell liquid (CNSL) cold-pressed and extracted from cashew nut shells was obtained. For culture inoculum, rumen fluids (filtrates through quadruple gauzes) collected orally from Holstein milking cows 90 days or longer after calving were used. 4 mL of the rumen fluid and 6 mL of artificial saliva (McDougal's artificial saliva) were added and the mixture was used for culturing. […] CNSL was dissolved in ethanol and added to a Hungate tube such that it had any concentration in the solution. […] To equalize the effect of ethanol, only ethanol was added to a no-addition (control) area. […] To these test tubes, a total of 10 mL of diluted rumen fluid and artificial saliva in the above mixture ratio was added, and the tubes were incubated anaerobically in an incubator (39° C., 17 hours) with butyl rubber caps and plastic screw caps provided while nitrogen gas was blown into the head space. Each culturing was performed in triplicate. The concentrations of methane and acetic acid in volatile fatty acids were both analyzed by FID gas chromatography.

[3] = system: rumen fluid culture; assay: Methane production measurement system using rumen culture (Example 2); details: for methane amount (mean ± SD): 39° C., 17 hours
Experimental: Cashew nut shell liquid (CNSL) cold-pressed and extracted from cashew nut shells was obtained. For culture inoculum, rumen fluids (filtrates through quadruple gauzes) collected orally from Holstein milking cows 90 days or longer after calving were used. 4 mL of the rumen fluid and 6 mL of artificial saliva (McDougal's artificial saliva) were added and the mixture was used for culturing. […] CNSL was dissolved in ethanol and added to a Hungate tube such that it had any concentration in the solution. […] To equalize the effect of ethanol, only ethanol was added to a no-addition (control) area. Thereafter, the resulting products were left for several hours to vaporize ethanol, to which 50 mg of corn starch, 75 mg of concentrate feed powder, and 75 mg of timothy hay powder were added as culture substrates. To these test tubes, a total of 10 ml of diluted rumen fluid and artificial saliva in the above mixture ratio was added, and the tubes were incubated anaerobically in an incubator (39° C., 17 hours) with butyl rubber caps and plastic screw caps provided while nitrogen gas was blown into the head space. Each culturing was performed in triplicate. The concentrations of methane and acetic acid in volatile fatty acids were both analyzed by FID gas chromatography.

[4] = 1000 mg/L alone, ▴ = reduction, ^ = increase

`O=C(O)CC(O)C(=O)O` (racemic) [DL-malic acid] was tested, and the “acetate amount % vs cont” value ([1]; 500 mg/L alone) was 123%, the “acetate amount (mean ± SD)” value ([1]; 500 mg/L alone) was 4.18 ± 0.11 g/L and the “methane amount (mean ± SD)” value ([1]; 500 mg/L alone) was 6.22 ± 0.93 mL/tube. For the same molecule, the “acetate amount % vs cont” value ([1]; 1000 mg/L alone) was 111%, the “acetate amount (mean ± SD)” value ([1]; 1000 mg/L alone) was 3.76 ± 0.11 g/L and the “methane amount (mean ± SD)” value ([1]; 1000 mg/L alone) was 5.47 ± 0.01 mL/tube. For the same molecule, the “methane amount % reduction vs cont” value [1, 4] was “▴0%”, the “improvement in the methane reduction rate” value ([1]; CNSL and garlic powder in combination, 500 to 1,000 mg/L DL-malic acid alone, 100 to 200 mg/L garlic powder) was “did not show significant improvement” and the “acetate amount % vs cont” value ([2]; 500 mg/L alone) was 114%. For the same molecule, the “acetate amount (mean ± SD)” value ([2]; 500 mg/L alone) was 4.18 ± 0.07 g/L, the “methane amount (mean ± SD)” value ([2]; 500 mg/L alone) was 6.13 ± 0.92 mL/tube and the “acetate amount % vs cont” value ([2]; 1000 mg/L alone) was 102%. The “acetate amount (mean ± SD)” value ([2]; 1000 mg/L alone) was 3.76 ± 0.27 g/L, the “methane amount (mean ± SD)” value ([2]; 1000 mg/L alone) was 6.13 ± 0.00 mL/tube and the “acetate amount % vs cont” value ([2]; 2000 mg/L alone) was 105%. The “acetate amount (mean ± SD)” value ([2]; 2000 mg/L alone) was 3.85 ± 0.38 g/L, the “methane amount (mean ± SD)” value ([2]; 2000 mg/L alone) was 5.95 ± 0.70 mL/tube and the “methane amount % reduction vs cont” value ([2]; 2000 mg/L alone) was “▴3%”.

For `O=C(O)CC(O)(CC(=O)O)C(=O)O` [citric acid], the “acetate amount % vs cont” value ([3]; 500 mg/L alone) was 115%, the “acetate amount (mean ± SD)” value ([3]; 500 mg/L alone) was 4.25 ± 0.16 g/L and the “methane amount (mean ± SD)” value ([3]; 500 mg/L alone) was 5.12 ± 0.67 mL/tube. For the same molecule, the “acetate amount % vs cont” value ([3]; 1000 mg/L alone) was 119%, the “acetate amount (mean ± SD)” value ([3]; 1000 mg/L alone) was 4.42 ± 0.14 g/L and the “methane amount (mean ± SD)” value ([3]; 1000 mg/L alone) was 3.77 ± 1.64 mL/tube. The “methane amount % reduction vs cont” value [3, 4] was “▴21%”, the “acetate amount % vs cont” value ([2]; 500 mg/L alone) was 99% and the “acetate amount (mean ± SD)” value ([2]; 500 mg/L alone) was 3.64 ± 0.70 g/L. The “methane amount (mean ± SD)” value ([2]; 500 mg/L alone) was 6.53 ± 0.43 mL/tube, the “acetate amount % vs cont” value ([2]; 1000 mg/L alone) was 102% and the “acetate amount (mean ± SD)” value ([2]; 1000 mg/L alone) was 3.76 ± 1.10 g/L. For the same molecule, the “methane amount (mean ± SD)” value ([2]; 1000 mg/L alone) was 6.41 ± 1.49 mL/tube, the “acetate amount % vs cont” value ([2]; 2000 mg/L alone) was 128% and the “acetate amount (mean ± SD)” value ([2]; 2000 mg/L alone) was 4.71 ± 0.15 g/L. For the same molecule, the “methane amount (mean ± SD)” value ([2]; 2000 mg/L alone) was 5.45 ± 2.09 mL/tube and the “methane amount % reduction vs cont” value ([2]; 2000 mg/L alone) was “▴11%”.

In the case of `O=C(O)/C=C/C(=O)O` [fumaric acid], the “acetate amount % vs cont” value ([1]; 500 mg/L alone) is reported as 114%, the “acetate amount (mean ± SD)” value ([1]; 500 mg/L alone) is reported as 3.86 ± 0.12 g/L and the “methane amount (mean ± SD)” value ([1]; 500 mg/L alone) is reported as 5.94 ± 0.01 mL/tube.

For `CC(=O)C(=O)O` [pyruvic acid], the “acetate amount % vs cont” value ([3]; 500 mg/L alone) was 109%, the “acetate amount (mean ± SD)” value ([3]; 500 mg/L alone) was 4.04 ± 0.31 g/L and the “methane amount (mean ± SD)” value ([3]; 500 mg/L alone) was 5.58 ± 1.26 mL/tube. The “acetate amount % vs cont” value ([3]; 1000 mg/L alone) was 118%, the “acetate amount (mean ± SD)” value ([3]; 1000 mg/L alone) was 4.36 ± 0.02 g/L and the “methane amount (mean ± SD)” value ([3]; 1000 mg/L alone) was 5.39 ± 0.04 mL/tube.

With `O=C(O)CCC(=O)O` [succinic acid] the “acetate amount % vs cont” value ([3]; 500 mg/L alone) was 115%, the “acetate amount (mean ± SD)” value ([3]; 500 mg/L alone) was 4.26 ± 0.42 g/L and the “methane amount (mean ± SD)” value ([3]; 500 mg/L alone) was 5.28 ± 1.76 mL/tube. The “acetate amount % vs cont” value ([3]; 1000 mg/L alone) was 106%, the “acetate amount (mean ± SD)” value ([3]; 1000 mg/L alone) was 3.91 ± 0.58 g/L and the “methane amount (mean ± SD)” value ([3]; 1000 mg/L alone) was 6.24 ± 0.83 mL/tube.
